Measured values from ChEMBL document CHEMBL1129579, “Carbohydrates in an acidic multivalent assembly: nanomolar P-selectin inhibitors” (J Med Chem, 1996).

Biological target: T1, P-selectin (Homo sapiens, UniProt P16109)
T1 sequence (P16109 whole entry): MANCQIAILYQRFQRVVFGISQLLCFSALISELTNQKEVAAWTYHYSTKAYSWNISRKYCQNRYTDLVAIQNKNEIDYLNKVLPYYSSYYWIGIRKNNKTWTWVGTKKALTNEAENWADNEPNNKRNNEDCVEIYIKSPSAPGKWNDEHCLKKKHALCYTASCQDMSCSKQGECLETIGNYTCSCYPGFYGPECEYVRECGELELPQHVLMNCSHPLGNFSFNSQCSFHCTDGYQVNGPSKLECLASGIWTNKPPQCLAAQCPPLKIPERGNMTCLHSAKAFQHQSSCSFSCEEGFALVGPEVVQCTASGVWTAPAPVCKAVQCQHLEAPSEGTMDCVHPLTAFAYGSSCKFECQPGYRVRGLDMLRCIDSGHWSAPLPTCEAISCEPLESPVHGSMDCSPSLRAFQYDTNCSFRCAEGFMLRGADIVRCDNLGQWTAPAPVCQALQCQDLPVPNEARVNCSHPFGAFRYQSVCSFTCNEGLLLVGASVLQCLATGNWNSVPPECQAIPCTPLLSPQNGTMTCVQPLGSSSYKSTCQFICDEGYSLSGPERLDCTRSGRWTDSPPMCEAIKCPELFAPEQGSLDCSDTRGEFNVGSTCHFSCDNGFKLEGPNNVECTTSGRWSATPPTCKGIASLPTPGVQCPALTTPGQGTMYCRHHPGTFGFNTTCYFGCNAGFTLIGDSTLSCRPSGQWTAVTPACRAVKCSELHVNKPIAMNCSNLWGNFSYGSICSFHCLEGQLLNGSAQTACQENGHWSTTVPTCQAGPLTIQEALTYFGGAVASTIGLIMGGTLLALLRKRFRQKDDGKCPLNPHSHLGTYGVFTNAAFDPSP
Assay: Inhibitory activity against Selectin P IgG chimera binding to HL-60 cells, by binding to Selectin P
Type: cell-based

Row | SMILES | IC50
1 | CCCCCCCCCCCCC#CC#CCCCCCCCCC(=O)NCCSCCCN(C(C)=O)[C@@H]1O[C@@H](CO)[C@@H](O[C@@H]2O[C@@H](CO)[C@H](O)[C@H](OCC(=O)O)[C@@H]2O)[C@H](O[C@@H]2O[C@@H](C)[C@@H](O)[C@H](O)[C@@H]2O)[C@@H]1O | 0.002 µM
2 | CCCCCCCCCCCCC#CC#CCCCCCCCCC(=O)NCCO | 0.5 µM
